Laboratory results as given in patent US7772252B2, “Heterocyclic substituted carbonyl derivatives and their use as dopamine D3 receptor ligands” (Aventis Pharmaceuticals Inc., priority 2001, dated 2010).

Each compound was assayed against T1, cloned human dopamine D3 receptors (Homo sapiens, UniProt P35462) (assay: [N-Methyl-3H]Spiroperidol binding to cloned human dopamine D3 receptors). Conditions: read-out: D3 Ki.
T1 construct: expressed in transfected cells; membrane homogenate
In short: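 Radioligand displacement with [N-methyl-3H]spiroperidol was run on membranes from a high-expressing CHO clone carrying human D3. Membranes were prepared in 10% DMSO and stored at −80° C.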

T1 sequence (P35462 whole entry): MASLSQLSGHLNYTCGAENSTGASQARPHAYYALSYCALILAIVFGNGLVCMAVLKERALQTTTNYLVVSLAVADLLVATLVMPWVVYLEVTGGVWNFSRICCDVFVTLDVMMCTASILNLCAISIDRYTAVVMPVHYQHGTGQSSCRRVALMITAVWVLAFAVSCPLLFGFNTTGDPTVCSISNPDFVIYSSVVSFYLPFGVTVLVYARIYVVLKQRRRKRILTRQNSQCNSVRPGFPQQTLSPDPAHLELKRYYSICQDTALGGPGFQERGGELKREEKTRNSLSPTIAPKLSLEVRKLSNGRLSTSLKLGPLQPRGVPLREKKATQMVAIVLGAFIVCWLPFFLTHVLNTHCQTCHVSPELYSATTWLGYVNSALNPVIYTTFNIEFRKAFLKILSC

Ki [nM] | Structure (SMILES)
65.5 | CC(C)(C)OC(=O)N1CC[C@@H](CNC(=O)[C@@H]2C[C@H]2CN2CCC(c3noc4ccsc34)CC2)C1 [compound 833373]
24.2 | CC(C)(C)OC(=O)N1CCC(CNC(=O)[C@@H]2C[C@H]2CN2CCC(c3noc4ccsc34)CC2)CC1 [compound 833375]
23.7 | COc1c(F)ccc2c(C3CCN(CCC4(C(=O)NCCCn5ccnc5)CC4)CC3)noc12 [compound 833378]
2.32 | O=C(NC1CCN(Cc2ncc[nH]2)CC1)[C@@H]1C[C@H]1CN1CCC(c2noc3ccsc23)CC1 [compound 833382]
2.57 | O=C(NC1CCNCC1)[C@@H]1C[C@H]1CN1CCC(c2noc3ccsc23)CC1 [compound 833383]
5.68 | O=C(NC[C@@H]1CCNC1)[C@@H]1C[C@H]1CN1CCC(c2noc3ccsc23)CC1 [compound 833384]
36.5 | O=C(NCC1CCNCC1)[C@@H]1C[C@H]1CN1CCC(c2noc3ccsc23)CC1 [compound 833386]
22.4 | O=C(NCCCN1CCCCC1)C1(CCN2CCN(c3csc4cc(C(F)(F)F)ccc34)CC2)CC1 [compound 833475]
131 | COc1c(F)ccc2c(C3CCN(CCC4(C(=O)N[C@H]5CC[C@H](O)CC5)CC4)CC3)noc12 [compound 833476]
0.962 | Cc1ccc(CN2CCC(NC(=O)[C@@H]3C[C@H]3CN3CCC(c4noc5ccsc45)CC3)CC2)cc1 [compound 833482]
0.93 | O=C(NC1CCN(CC2CC2)CC1)[C@@H]1C[C@H]1CN1CCC(c2noc3ccsc23)CC1 [compound 833483]
2.99 | O=C(NC1CCN(Cc2cccnc2)CC1)[C@@H]1C[C@H]1CN1CCC(c2noc3ccsc23)CC1 [compound 833485]
41.5 | O=C([C@@H]1C[C@H]1CN1CCC(c2noc3ccsc23)CC1)N1CCC(CCN2CCCC2)CC1 [compound 833509]
2.17 | O=C(NC1CCN(Cc2ccc(F)c(F)c2)CC1)[C@@H]1C[C@H]1CN1CCN(c2csc3cc(C(F)(F)F)ccc23)CC1 [compound 833512]
43.1 | O=C([C@@H]1C[C@H]1CN1CCN(c2csc3cc(C(F)(F)F)ccc23)CC1)N1CCC(n2ccnc2)CC1 [compound 833513]
0.36 | O=C([C@@H]1C[C@H]1CN1CCN(c2csc3cc(C(F)(F)F)ccc23)CC1)N1CCC(CCN2CCCC2)CC1 [compound 833514]
48.3 | O=C(NCc1ccc(-c2csnn2)cc1)[C@@H]1C[C@H]1CN1CCN(c2csc3cc(C(F)(F)F)ccc23)CC1 [compound 833515]
21.7 | O=C(NC1CCN(Cc2ccc(F)cc2F)CC1)[C@@H]1C[C@H]1CN1CCN(c2csc3cc(C(F)(F)F)ccc23)CC1 [compound 833516]
2.17 | COc1ccc2c(c1)c(N1CCN(C[C@@H]3C[C@H]3C(=O)NC3CCN(Cc4ccc(F)c(F)c4)CC3)CC1)nn2C [compound 833626]
1.63 | COc1ccc2c(c1)c(N1CCN(C[C@@H]3C[C@H]3C(=O)NC3CCN(Cc4ccc(F)cc4F)CC3)CC1)nn2C [compound 833627]
2.69 | COc1ccc2c(c1)c(N1CCN(C[C@@H]3C[C@H]3C(=O)NCCc3ccc(F)cc3)CC1)nn2C [compound 833629]
4.06 | COc1ccc2c(c1)c(N1CCN(C[C@@H]3C[C@H]3C(=O)NC[C@@H]3CCNC3)CC1)nn2C [compound 833632]

Ki [nM] | Structure (SMILES)
7.22 | O=C(NCCCN1CCCCC1)[C@@H]1C[C@H]1CN1CCC(c2csc3c(C(F)(F)F)cccc23)CC1 [compound 833686]
7.2 | C[C@H]1CC[C@H](NC(=O)[C@@H]2C[C@H]2CN2CCN(c3nc4cccc5c4n3CCC5)CC2)CC1 [compound 833699, 2R-[4-(5,6-Dihydro-4H-imidazo[4,5,1-ij]quinolin-2-yl)-piperazin-1-ylmethyl]-1R-cyclopranecarboxylic acid (trans-4-methyl-cyclohexyl)-amide]
3.24 | C[C@H]1CC[C@H](NC(=O)[C@@H]2C[C@H]2CN2CCN(c3csc4ncccc34)CC2)CC1 [compound 833700]
1.28 | C[C@H]1CC[C@H](NC(=O)[C@@H]2C[C@H]2CN2CCN(c3nn(-c4ccc(F)cc4)c4ccccc34)CC2)CC1 [compound 833701]
0.495 | Cn1nc(N2CCN(C[C@@H]3C[C@H]3C(=O)N[C@H]3CC[C@H](C)CC3)CC2)c2ccccc21 [compound 833702]
1.92 | C[C@H]1CC[C@H](NC(=O)[C@@H]2C[C@H]2CN2CCC(c3nsc4cc(Br)ccc34)CC2)CC1 [compound 833703]
2.3 | COc1ccc2[nH]nc(N3CCN(C[C@@H]4C[C@H]4C(=O)N[C@H]4CC[C@H](C)CC4)CC3)c2c1 [compound 833704]
4.16 | O=C(NC1CCN(C(=O)Nc2ccc(Cl)cc2)CC1)[C@@H]1C[C@H]1CN1CCC(c2noc3ccsc23)CC1 [compound 833714]
1.38 | O=C(NC1CCN(CCc2cccc(Cl)c2)CC1)[C@@H]1C[C@H]1CN1CCC(c2noc3ccsc23)CC1 [compound 833748]
0.333 | COc1ccc2c(c1)c(N1CCN(C[C@@H]3C[C@H]3C(=O)NC3CCN(Cc4ccc(Cl)cc4)CC3)CC1)nn2C [compound 833834]
0.499 | COc1ccc2c(c1)c(N1CCN(C[C@@H]3C[C@H]3C(=O)NC3CCN(Cc4ccc(F)cc4)CC3)CC1)nn2C [compound 833835]
1.36 | COc1ccc2c(c1)c(N1CCN(C[C@@H]3C[C@H]3C(=O)NC3CCN(Cc4cccc(Cl)c4)CC3)CC1)nn2C [compound 833836]
12.4 | O=C(N[C@H]1CC[C@H](O)CC1)[C@@H]1C[C@H]1CN1CCN(c2nn(-c3ccc(OC(F)(F)F)cc3)c3ccsc23)CC1 [compound 833855]
1.86 | C[C@H]1CC[C@H](NC(=O)[C@@H]2C[C@H]2CN2CCC(c3nn(-c4ccccc4)c4ccsc34)CC2)CC1 [compound 833909]
0.241 | C[C@H]1CC[C@H](NC(=O)[C@@H]2C[C@H]2CN2CCC(c3noc4ccc(C(F)(F)F)cc34)CC2)CC1 [compound 834012, 2R-[4-(5-Trifluoromethyl-benzo[d]isoxazol-3-yl)-piperidin-1-ylmethyl]-cyclopropane-1R-carboxylic acid trans-(4-methyl-cyclohexyl)-amide]
1.24 | O=C(NCCCN1CCCCC1)[C@@H]1C[C@H]1CN1CCC(c2csc3cc(C(F)(F)F)ccc23)CC1 [compound 834015]
1.62 | O=C([C@@H]1C[C@H]1CN1CCC(c2csc3cc(C(F)(F)F)ccc23)CC1)N1CCC(Cn2ccnc2)CC1 [compound 834017]
0.837 | O=C(NCCCn1ccnc1)[C@@H]1C[C@H]1CN1CCN(c2csc3cc(Cl)ccc23)CC1 [compound 834172]
90.5 | O=C(NCCCN1CCOCC1)[C@@H]1C[C@H]1CN1CCN(c2nn(-c3ccc(C(F)(F)F)cc3)c3ccsc23)CC1 [compound 834205]
88.8 | O=C(NCCCN1CCSCC1)[C@@H]1C[C@H]1CN1CCN(c2nn(-c3ccc(C(F)(F)F)cc3)c3ccsc23)CC1 [compound 834206]
71.4 | CC1CCN(CCCNC(=O)[C@@H]2C[C@H]2CN2CCN(c3nn(-c4ccc(OC(F)(F)F)cc4)c4ccsc34)CC2)CC1 [compound 834207]

Structure (SMILES) | Ki [nM]
Cn1nc(C2CCN(C[C@@H]3C[C@H]3C(=O)N[C@H]3CC[C@H](C)CC3)CC2)c2ccc(Br)cc21 [compound 833693] | 18.4
C[C@H]1CC[C@H](NC(=O)[C@@H]2C[C@H]2CN2CCC(c3n[nH]c4cc(Br)ccc34)CC2)CC1 [compound 833694] | 46.9
C[C@H]1CC[C@H](NC(=O)[C@@H]2C[C@H]2CN2CCC(c3nn(-c4cccnc4)c4ccccc34)CC2)CC1 [compound 833695] | 176
Cn1nc(C2CCN(C[C@@H]3C[C@H]3C(=O)N[C@H]3CC[C@H](C)CC3)CC2)c2ccc(C(F)(F)F)cc21 [compound 833696] | 268
C[C@H]1CC[C@H](NC(=O)[C@@H]2C[C@H]2CN2CCC(c3nn(C4CCCCC4)c4cc(C(F)(F)F)ccc34)CC2)CC1 [compound 833697] | 105
C[C@H]1CC[C@H](NC(=O)[C@@H]2C[C@H]2CN2CCC(c3nn(-c4ccc(F)cc4)c4cc(C(F)(F)F)ccc34)CC2)CC1 [compound 833698] | 134
C[C@H]1CC[C@H](NC(=O)[C@@H]2C[C@H]2CN2CCC(c3n[nH]c4ccc(C(F)(F)F)cc34)CC2)CC1 [compound 833934] | 0.633
C[C@H]1CC[C@H](NC(=O)[C@@H]2C[C@H]2CN2CCC(c3n[nH]c4cc(C(F)(F)F)ccc34)CC2)CC1 [compound 833941] | 8.98
COc1cccc2c(C3CCN(C[C@@H]4C[C@H]4C(=O)NC4CC5CCC4(C)C5(C)C)CC3)nn(C)c12 (stereo partly shown) [compound 834055] | 62
COc1cccc2c(C3CCN(C[C@@H]4C[C@H]4C(=O)NCCCN4CCCCC4)CC3)nn(C)c12 [compound 834056] | 93.2
COc1cccc2c(C3CCN(C[C@@H]4C[C@H]4C(=O)NCC45CC6CC(CC(C6)C4)C5)CC3)nn(C)c12 [compound 834057] | 89.4
COc1cccc2c(C3CCN(C[C@@H]4C[C@H]4C(=O)NCCCn4ccnc4)CC3)nn(C)c12 [compound 834058] | 91.4
Cc1ccc2c(c1)c(C1CCN(C[C@@H]3C[C@H]3C(=O)N[C@H]3CC[C@H](C)CC3)CC1)nn2C [compound 834059] | 2.76
Cc1ccc2c(c1)c(C1CCN(C[C@@H]3C[C@H]3C(=O)NCCCn3ccnc3)CC1)nn2C [compound 834129] | 6.75
COc1cccc2c(C3CCN(C[C@@H]4C[C@H]4C(=O)NC4CC5CC(C4C)C5(C)C)CC3)nn(C)c12 (stereo partly shown) [compound 834171] | 65.2
